{"source": "ChEMBL document CHEMBL4813982", "about": "“Novel pyrazolo[4,3-d]pyrimidine microtubule targeting agents (MTAs): Synthesis, structure-activity relationship, in vitro and in vivo evaluation as antitumor agents” (Bioorg Med Chem Lett, 2021)", "key": {"MCF7 [1]": {"test_system": "MCF7", "assay": "Antiproliferative activity against human MCF7 cells", "format": "functional, cell-based"}, "MCF7 [2]": {"test_system": "MCF7", "assay": "Antiproliferative activity against human MCF7 cells expressing TUBB3", "format": "functional, cell-based"}, "OVCAR-8": {"test_system": "OVCAR-8", "assay": "Antiproliferative activity against human OVCAR-8 cells", "format": "functional, cell-based"}, "MCF7 [3]": {"test_system": "MCF7", "assay": "Antitumor activity against human MCF7 cells expressing TUBB3 xenografted in athymic mouse assessed as reduction in tumor growth at 10 mg/kg administered twice in a week", "format": "functional, organism-based"}, "[4]": {"assay": "Toxicity in athymic mouse xenografted with human MCF7 cells expressing TUBB3 assessed as effect on body weight at 10 mg/kg administered twice in a week", "format": "organism-based", "details": "in vivo"}}, "note": "Calls of active or inactive are those of the source. The rule behind the calls is not given here.", "data": [{"smiles": "CC(=O)O[C@H]1C(=O)[C@@]2(C)[C@H]([C@H](OC(=O)c3ccccc3)[C@]3(O)C[C@H](OC(=O)[C@H](O)[C@@H](NC(=O)c4ccccc4)c4ccccc4)C(C)=C1C3(C)C)[C@]1(OC(C)=O)CO[C@@H]1C[C@@H]2O", "note": "[PACLITAXEL]", "values": [{"measurement": "EC50", "setting": "MCF7 [1]", "result": 194, "unit": "nM"}, {"measurement": "EC50", "setting": "MCF7 [2]", "result": 2070, "unit": "nM"}, {"measurement": "IC50", "setting": "OVCAR-8", "result": 5.3, "unit": "nM"}, {"measurement": "TGI", "setting": "MCF7 [3]", "result": "Active"}, {"measurement": "Activity", "setting": "[4]", "result": "Toxic"}]}]}
